Experimental data from ChEMBL document CHEMBL5096169, “Recent progress in agents targeting polo-like kinases: Promising therapeutic strategies” (Eur J Med Chem, 2021).
Where “and” joins values, the source holds several entries; their conditions need not be identical. Equal values may be shown once. One block for each compound: values may come before it.

Key:
[1] = biological target: T1, Serine/threonine-protein kinase PLK1 (Homo sapiens, UniProt P53350); experiment: Inhibition of PLK1-PBD (unknown origin) using FITC-GPMQSpTPLNG-OH as substrate measured after 30 mins by Fluorescence polarization assay
[2] = biological target: T1, Serine/threonine-protein kinase PLK1; experiment: Inhibition of PLK1 (unknown origin)
[3] = biological target: T1, Serine/threonine-protein kinase PLK1; experiment: Inhibition of human PLK1-PBD (326 to 603 residues) expressed in Escherichia coli BL21(DE3) rosetta cells using 5-carboxyfluorescein-GPMQSpTPLNG-OH as substrate preincubated for 1 hr followed by substrate addition and measured after 1 to 2 hr by fluorescence polarization assay
[4] = biological target: T1, Serine/threonine-protein kinase PLK1; experiment: Binding affinity to human PLK1-PBD (326 to 603 residues) expressed in Escherichia coli BL21(DE3) rosetta cells by microscale thermophoresis analysis
CCRF-CEM = experiment: Cytotoxicity against human CCRF-CEM cells assessed as reduction in cell viability incubated for 72 hrs by resazurin microplate assay; format: functional, cell-based
[5] = biological target: Serine/threonine-protein kinase PLK3 (Homo sapiens, UniProt Q9H4B4); experiment: Inhibition of recombinant N-terminal MBP-tagged human PLK3-PBD expressed in Escherichia coli BL21(DE3) rosetta cells using 5-carboxyfluorescein-GPLATSpTPKNG-NH2 as substrate preincubated for 1 hr followed by substrate addition and measured after 1 hr by fluorescence polarization assay
[6] = biological target: T1, Serine/threonine-protein kinase PLK1; experiment: Inhibition of human PLK1-PBD expressed in Escherichia coli BL21(DE3) rosetta cells using 5-carboxyfluorescein-GPMQSpTPLNG-OH as substrate preincubated for 1 hr followed by substrate addition and measured after 1 hr by fluorescence polarization assay
[7] = biological target: Serine/threonine-protein kinase PLK2 (Homo sapiens, UniProt Q9NYY3); experiment: Inhibition of recombinant C-terminal 6His-tagged human PLK2-PBD expressed in Escherichia coli BL21(DE3) rosetta cells using 5-carboxyfluorescein-GPMQTSpTPKNG-OH as substrate preincubated for 1 hr followed by substrate addition and measured after 1 hr by fluorescence polarization assay
ADR5000 cell line = experiment: Cytotoxicity against human CEM/ADR5000 cells assessed as reduction in cell viability incubated for 72 hrs by resazurin microplate assay; format: functional, cell-based; details: ADR5000, 72 h
MOLM-13 = experiment: Antiproliferative activity against human MOLM-13 cells assessed as inhibition of cell proliferation incubated for 24 hrs by CCK-8 assay; format: functional, cell-based; details: MOLM-13, 24 h
KG-1 = experiment: Antiproliferative activity against human KG-1 cells assessed as inhibition of cell proliferation incubated for 24 hrs by CCK-8 assay; format: functional, cell-based; details: KG-1, 24 h

T1 sequence (P53350 whole entry): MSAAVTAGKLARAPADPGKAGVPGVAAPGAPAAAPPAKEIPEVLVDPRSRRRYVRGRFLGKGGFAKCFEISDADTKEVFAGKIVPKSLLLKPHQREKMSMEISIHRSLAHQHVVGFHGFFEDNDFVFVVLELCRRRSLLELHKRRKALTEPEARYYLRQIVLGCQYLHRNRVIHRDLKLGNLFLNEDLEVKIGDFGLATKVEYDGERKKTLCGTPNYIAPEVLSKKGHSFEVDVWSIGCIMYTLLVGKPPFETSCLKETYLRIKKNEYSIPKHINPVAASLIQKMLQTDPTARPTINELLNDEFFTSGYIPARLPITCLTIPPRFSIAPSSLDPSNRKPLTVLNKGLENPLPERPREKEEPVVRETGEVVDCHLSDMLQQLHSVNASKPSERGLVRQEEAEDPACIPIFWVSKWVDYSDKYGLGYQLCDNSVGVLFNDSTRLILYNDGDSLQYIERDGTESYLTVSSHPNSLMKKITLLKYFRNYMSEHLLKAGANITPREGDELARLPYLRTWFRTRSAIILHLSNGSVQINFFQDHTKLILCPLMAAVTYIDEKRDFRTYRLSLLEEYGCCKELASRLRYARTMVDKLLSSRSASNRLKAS
Serine/threonine-protein kinase PLK3, sequence (Q9H4B4 whole entry): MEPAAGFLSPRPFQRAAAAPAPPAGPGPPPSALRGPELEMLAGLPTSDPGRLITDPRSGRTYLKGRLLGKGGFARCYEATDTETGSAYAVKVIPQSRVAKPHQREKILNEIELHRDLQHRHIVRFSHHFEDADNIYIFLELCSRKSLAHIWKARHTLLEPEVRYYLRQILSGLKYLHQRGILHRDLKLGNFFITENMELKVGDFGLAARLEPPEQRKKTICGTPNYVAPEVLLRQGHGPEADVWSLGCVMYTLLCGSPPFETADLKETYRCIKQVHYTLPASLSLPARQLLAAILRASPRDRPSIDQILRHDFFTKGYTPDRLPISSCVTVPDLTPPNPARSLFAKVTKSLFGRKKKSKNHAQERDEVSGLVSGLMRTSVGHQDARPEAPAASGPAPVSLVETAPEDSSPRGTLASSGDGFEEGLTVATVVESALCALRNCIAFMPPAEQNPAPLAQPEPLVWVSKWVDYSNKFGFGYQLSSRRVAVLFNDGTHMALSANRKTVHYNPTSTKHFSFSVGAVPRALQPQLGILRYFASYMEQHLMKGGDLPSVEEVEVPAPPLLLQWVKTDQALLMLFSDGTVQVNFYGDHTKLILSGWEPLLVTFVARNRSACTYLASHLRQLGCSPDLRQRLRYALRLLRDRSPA
Serine/threonine-protein kinase PLK2, sequence (Q9NYY3 whole entry): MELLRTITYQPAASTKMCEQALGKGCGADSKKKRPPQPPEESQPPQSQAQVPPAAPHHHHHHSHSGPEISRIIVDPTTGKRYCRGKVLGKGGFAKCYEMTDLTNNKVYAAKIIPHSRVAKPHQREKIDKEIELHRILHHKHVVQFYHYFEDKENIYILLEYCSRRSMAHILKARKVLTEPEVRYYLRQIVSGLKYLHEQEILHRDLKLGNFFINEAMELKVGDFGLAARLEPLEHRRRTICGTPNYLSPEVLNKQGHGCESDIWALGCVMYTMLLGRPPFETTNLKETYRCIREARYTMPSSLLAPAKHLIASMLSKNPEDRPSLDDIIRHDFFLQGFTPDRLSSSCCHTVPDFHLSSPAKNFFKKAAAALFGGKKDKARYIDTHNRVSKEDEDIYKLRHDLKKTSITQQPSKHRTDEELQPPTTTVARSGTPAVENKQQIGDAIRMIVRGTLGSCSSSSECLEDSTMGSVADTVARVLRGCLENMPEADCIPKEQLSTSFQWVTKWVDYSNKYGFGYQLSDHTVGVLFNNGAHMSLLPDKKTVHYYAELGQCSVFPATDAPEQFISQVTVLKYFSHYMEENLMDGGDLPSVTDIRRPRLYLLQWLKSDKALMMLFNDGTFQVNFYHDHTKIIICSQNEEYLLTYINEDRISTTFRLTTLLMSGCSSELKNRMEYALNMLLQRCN

SMILES: CC(CC(=O)N[C@H](C(=O)N[C@@H](CO)C(=O)N[C@H](C(N)=O)[C@@H](C)OP(=O)(O)O)c1cncs1)NC(=O)c1ccc(CO)cc1 (single isomer, unassigned)
IC50 [1]: 0.267 µM

SMILES: CCOC(=O)c1oc2ccccc2c1CBr
IC50 [3]: 16.4 µM | Kd [4]: 12.8 µM

SMILES: CC[C@@H]1C(=O)N(C)c2cnc(Nc3ccc(C(=O)NCCOCCOCCOCCNc4cccc5c4C(=O)N(C4CCC(=O)NC4=O)C5=O)cc3OC)nc2N1C1CCCC1 (stereo partly specified)
IC50 (MOLM-13): 0.00621 µM | IC50 (KG-1): 0.00694 µM

Now from value to compound, other results behind:

IC50 [2]: 0.0022 µM
SMILES: COc1cc2ncn(-c3cc(-c4cccc(C(F)(F)F)c4)c(C(N)=O)s3)c2cc1OC

IC50 [5]: > 100 µM | IC50 [6]: 17.9 µM and 95.5 µM | IC50 [7]: 95.5 µM
SMILES: C[C@@]12CN(Cc3cccc(C#N)c3)C[C@@](C)(C1)c1c(-c3ccc4ccccc4c3)ccc(=O)n1C2
IC50 (CCRF-CEM): 11.4 µM | IC50 (ADR5000 cell line): 13.5 µM
